Measured values: article PMC10327491 (Nature microbiology, 2022)

Biological target: T1, BtSULT (Bacteroides thetaiotaomicron, UniProt Q8AAP8)
T1 sequence (Q8AAP8 1-368): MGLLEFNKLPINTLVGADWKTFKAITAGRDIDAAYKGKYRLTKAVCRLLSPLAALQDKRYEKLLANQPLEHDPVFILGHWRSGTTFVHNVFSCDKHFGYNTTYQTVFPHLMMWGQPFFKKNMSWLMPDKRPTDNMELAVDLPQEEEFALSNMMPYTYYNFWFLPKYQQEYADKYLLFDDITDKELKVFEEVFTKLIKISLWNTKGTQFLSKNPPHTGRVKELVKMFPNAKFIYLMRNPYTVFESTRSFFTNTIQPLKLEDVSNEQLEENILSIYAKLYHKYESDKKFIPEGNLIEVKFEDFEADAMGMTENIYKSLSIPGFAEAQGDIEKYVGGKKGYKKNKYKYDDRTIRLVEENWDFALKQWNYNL
Assay: UPLC-MS of cholesterol sulfate formation
Type: biochemical
Details: 100 uM PAPS, 50 uM cholesterol acceptor, pH 7, 37 °C; sulfonate donor

## Nc1ncnc2c1ncn2[C@@H]1O[C@H](COP(=O)(O)OS(=O)(=O)O)[C@@H](OP(=O)(O)O)[C@H]1O [adenosine 3'-phosphate-5'-phosphosulfate]
  UPLC-MS of cholesterol sulfate formation: BtSULT encodes a sulfotransferase that utilizes PAPS to sulfonate Ch
